Test results from patent publication US20100119613A1, “PROCESS TO ACTIVATE EXTRACTS DERIVED FROM LIVING ORGANISMS USING LONG WAVE UV IRRADIATION AND COMPOSITIONS COMPRISING SAID ACTIVATED EXTRACT” (Medizinische Universitat Wien, priority 2007, published 2010).
Values belong to the compound of their own block, whether it stands above or below them.

How the values were obtained:
Heme Oxygenase 1 (HO-1) = test: HO-1 mRNA expression in dermal fibroblasts (qPCR); assay type: cell-based, human; conditions: for HO-1 mRNA expression relative to non-treated control cells: dermal fibroblasts; for Effect on OxPAPC-mediated HO-1 induction: fibroblasts incubated with the ROS scavenger prior to exposure to OxPAPC
Method: Neonatal Human Epidermal Keratinocytes (KC) derived from foreskin are obtained from Clonetics (San Diego, Calif.). Keratinocytes are cultured in keratinocyte growth medium (KGM) up to the fifth passage. Human neonatal skin fibroblasts (FB) are obtained from Cascade Biologics (Portland, Oreg.) and grown in Dulbecco's modified Eagle's medium, Gibco (Gaithersburg, Md.) supplemented with 10% fetal calf serum (FCS) and penicillin/streptomycin (1000 U per ml, Gibco) to sub-confluence.
RNA is isolated using Trizol reagent (Invitrogen). Nine hundred ng of total RNA are reverse-transcribed with murine leukemia virus reverse transcriptase (MuLV, Applied Biosystems, Foster City, Calif.) and oligo(dT) primers. The following forward (F) and reverse (R) primers are used: HO-1: F, 5′-[…]-3′; R, 5′-[…]-3′; B2M; F 5′-[…]-3′R,5′-[…]-3′ qPCR is performed using LightCycler technology and the Fast Start SYBR Green I kit (both Roche Applied Science, Basel, Switzerland). In all assays, cDNA is amplified using a standardized program (10-min denaturing step; 55 cycles of 5 s at 95° C., […], and 15 s at 72° C.; melting point analysis in 0.1° C. steps). Quantification of target gene expression is performed using a mathematical model by Pfaffl (Pfaffl, Nucleic Acids Res. 29, e45 (2001)). The expression of the target molecule is normalized to the expression of β-2 microglobulin.
PAPC is oxidized by exposure of the dry lipid to air for 72 h to generate OxPAPC. PAPC dried to a thin film on a glass support is irradiated with UVA-1 with 160 J/cm^2 to generate UV-PAPC. For treatment with singlet oxygen all lipids are vortexed in PBS containing 20 μM Rose Bengal and irradiated with 10 J/cm^2 UVA-1 (FIGS. 5 A,B) or under a commercial 35 W halogen lamp at a distance of 30 cm for 30 minutes (FIG. 5 C). The extent of oxidation was monitored by ESI-MS as described previously (Watson, J. Biol. Chem. 272, 13597-13607 (1997)). The UVA-1 irradiated lipids are solubilized, emulsified or suspended in the respective growth medium before skin cells or the skin equivalent are treated.
Human neonatal skin fibroblasts (FB) are obtained from Cascade Biologics (Portland, Oreg.) and grown in Dulbecco's modified Eagle's medium, Gibco (Gaithersburg, Md.) supplemented with 10% fetal calf serum (FCS) and penicillin/streptomycin (1000 U per ml, Gibco) to sub-confluence.
Fibroblasts are treated with autoxidized PAPC, UVA-1 treated PAPC or UVA-1 untreated PAPC (100 μg/ml) as described in Example 1. Total RNA is isolated after 4 hours from treated cells and untreated control cells.
Relative expression of HO-1 mRNA in dermal fibroblasts is determined 4 h after stimulation with lipids or extracts as specified above using quantitative real-time PCR (qPCR). Normalization is standardized by comparison to the expression of the housekeeping gene beta-2-microglobulin (B2M) as described in Example 1.
Fibroblasts are treated with lipids or extract as described in Example 1 relating to treatment with oxPAPC. Total RNA is isolated 4 h after stimulation with 100 μg/ml of lipids or extract.

HO-1 = conditions: literature (Ishikawa 1997); cited from earlier work
[1] = TLC fractions of OxPAPC and synthetic phospholipids (FIG. 2)
[2] = lipid not irradiated with UVA-1 in the presence of RB (FIG. 5B)

Compound: CCCCCCCCCCCCCCCC(=O)OC[C@H](COP(=O)([O-])OCC[N+](C)(C)C)OC(=O)CCCC(=O)O [PGPC, 1-palmitoyl-2-glutaroyl-sn-glycero-3-phosphorylcholine]
- HO-1 mRNA expression relative to non-treated control cells (Heme Oxygenase 1 (HO-1); [1]): failed to induce HO-1 expression

- Effect on OxPAPC-mediated HO-1 induction (Heme Oxygenase 1 (HO-1)): did not significantly reduce
Compound: vitamin E

Compound: CCCCCCCC/C=C\CCCCCCCC(=O)O[C@H](COC(=O)CCCCCCCCCCCCCCC)COP(=O)([O-])OCC[N+](C)(C)C [POPC, 1-palmitoyl-2-oleoyl-sn-3-glycerophosphorylcholine]
- HO-1 mRNA expression relative to non-treated control cells (Heme Oxygenase 1 (HO-1); [2]): did not induce Heme Oxygenase 1 (HO-1) mRNA expression

Compound: CCCCCCCCCCCCCC(=O)OC[C@H](COP(=O)([O-])OCC[N+](C)(C)C)OC(=O)CCCCCCCCCCCCC [DMPC, di-myristoyl-phosphorylcholine]
- HO-1 mRNA expression relative to non-treated control cells (Heme Oxygenase 1 (HO-1); [1]): failed to induce HO-1 expression

Compound: CCCCCCCCCCCCCCCC(=O)OC[C@H](COP(=O)(O)OCC[N+](C)(C)C)OC(=O)CCCC=O [POVPC, 1-palmitoyl-2-(5-oxovaleroyl)-sn-glycero-3-phosphorylcholine]
- HO-1 mRNA expression relative to non-treated control cells (Heme Oxygenase 1 (HO-1); [1]): failed to induce HO-1 expression

Compound: CCCCC/C=C\C/C=C\CCCCCCCC(=O)O[C@H](COC(=O)CCCCCCCCCCCCCCC)COP(=O)([O-])OCC[N+](C)(C)C [PLPC, 1-palmitoyl-2-linoleyl-sn-3-glycerophosphorylcholine]
- HO-1 mRNA expression relative to non-treated control cells (Heme Oxygenase 1 (HO-1); [2]): did not induce Heme Oxygenase 1 (HO-1) mRNA expression

Compound: CCCCCCCCCCCCCCCC(=O)OC[C@@H](O)COP(=O)([O-])OCC[N+](C)(C)C [LysoPC, 1-palmitoyl-2-lyso-sn-glycero-3-phosphorylcholine]
- HO-1 mRNA expression relative to non-treated control cells (Heme Oxygenase 1 (HO-1); [1]): failed to induce HO-1 expression

- Effect on OxPAPC-mediated HO-1 induction (Heme Oxygenase 1 (HO-1)): did not significantly reduce
Compound: CC1=C(/C=C/C(C)=C/C=C/C(C)=C/C=C/C=C(C)/C=C/C=C(C)/C=C/C2=C(C)CCCC2(C)C)C(C)(C)CCC1 [β-carotene]

Compound: 1-palmitoyl-2-(epoxyisoprostane E2)-sn-glycero-3-phosphorylcholine [PEIPC]
- HO-1 expression (HO-1): strong inducer of HO-1 expression

Compound: c1ccc(P(c2ccccc2)c2ccccc2)cc1 [TPP, triphenylphosphine]
- Effect on capacity of OxPAPC to induce HO-1 expression (Heme Oxygenase 1 (HO-1); OxPAPC treated with triphenylphosphine (not shown)): only slightly reduced

- Effect on OxPAPC-mediated HO-1 induction (Heme Oxygenase 1 (HO-1)): did not significantly reduce
Compound: O=C1O[C@H]([C@@H](O)CO)C(O)=C1O [vitamin C]
